The values that follow come from the supplement of paper PMC11061612.

The test system of one assay is KELLY (Neuroblastoma). Description: Bliss excess, mean over the matrix (fraction); higher = more synergy. Put shortly:
(§1)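 After 24 hours at 37°C and 5% CO2 in 1536-well plates, cells in DMEM/F12 or RPMI plus 10% FBS received two-drug dose matrices for 72 hours. Viability came from CellTiter-Glo 2.0 luminescence and was scaled as inhibition, anchored at 0 by vehicle wells and at 1 by blank wells. Combination Emax is taken as the second-highest inhibition in the matrix, and Bliss excess as the observed combination effect less EA + EB − EA·EB, with EA and EB the single-agent effects.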

The test system of assay [1] is LNCaP-Clone-FGC (Prostate Carcinoma). Described as above. Put shortly: as §1
In assay [2] the test system is LS-180 (Colorectal Carcinoma). The assay is described as above. Put shortly:
as §1

Assay [3] relates to ME-1 (Acute Myeloid Leukemia). The description is as above. An outline of the steps:
as §1

Assay [4] deals with RC-K8 (B-Cell Non-Hodgkin's Lymphoma). The assay is described as above. Put shortly:
as §1

In assay [5] the test system is Ramos-2G6-4C10 (Burkitt's Lymphoma). Described as above. An outline of the steps:
as §1

For another assay, the system named is 42-MG-BA (Glioblastoma). Description: combination Emax (second highest fraction inhibited in the dose matrix, 72 h); higher = more inhibition; extreme values may be limits of the assay. Put shortly: as §1
For another assay, the system named is AGS (Gastric Carcinoma). The description is as above. An outline of the steps: as §1
Assay [6] has as its system CAL-148 (Breast Carcinoma). Described as above. An outline of the steps:
as §1

For assay [7], the system named is Calu-3 (Lung Adenocarcinoma). Described as above. Put shortly: as §1
Assay [8] relates to Daoy (Other Solid Carcinomas). The description is as above. Put shortly: as §1
The subject of assay [9] is DoTc2-4510 (Cervical Carcinoma). The assay is described as above. An outline of the steps: as §1
Assay [10] deals with HCC-78 (Lung Adenocarcinoma). Described as above. An outline of the steps: as §1
The subject of assay [11] is HO-1-N-1 (Oral Cavity Carcinoma). The description is as above. An outline of the steps: as §1
Assay [12] deals with HuP-T4 (Pancreatic Carcinoma). The description is as above. Put shortly: as §1
Assay [13] concerns LNCaP-Clone-FGC (Prostate Carcinoma). The description is as above. Put shortly: as §1
For assay [14], the system named is MDA-MB-361 (Breast Carcinoma). Described as above. An outline of the steps: as §1
Assay [15] concerns NCI-H2085 (Non-Small Cell Lung Carcinoma). Described as above. Put shortly:
as §1

Assay [16] deals with Ramos-2G6-4C10 (Burkitt's Lymphoma). The assay is described as above. Put shortly:
as §1

The subject of assay [17] is TE-9 (Esophageal Squamous Cell Carcinoma). The description is as above. An outline of the steps: as §1
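Wherever Bliss excess, mean over the matrix is given: after 72 h of two-drug dosing.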

On to `CC1(C)CCC(CN2CCN(c3ccc(C(=O)NS(=O)(=O)c4ccc(NCC5CCOCC5)c([N+](=O)[O-])c4)c(Oc4cnc5[nH]ccc5c4)c3)CC2)=C(c2ccc(Cl)cc2)C1` [Venetoclax] + Cc1cc2ncnn2cc1Nc1ncc2c(n1)n(C1CCOCC1)c(=O)n2C [AZD7648] (first compound max 1 µM, 7x7, partner max 10 µM), for which the Bliss excess in the assay on KELLY (Neuroblastoma) was -0.0064; in [1], -0.0963; in assay [2] it was -0.0061; in assay [3], 0.0319; in assay [4], 0.0156; in [5], 0.0435. Also, the “combination Emax” value with 42-MG-BA (Glioblastoma) came to 0.43; in the assay on AGS (Gastric Carcinoma), 0.199; in assay [6] it was 0.447; in [7], 0.155; in assay [8], 0.172; in assay [9] it was 0.23. In addition, the “combination Emax” value in assay [10] was 0.243; in assay [11] it was 0.331; in assay [12] it was 0.202; in assay [13], 0.423; in [14] it was 0.44; in assay [15], 0.143. The “combination Emax” value was found to be 0.289 in assay [16] and 0.154 in assay [17].

As for `CC1(C)CCC(CN2CCN(c3ccc(C(=O)NS(=O)(=O)c4ccc(NCC5CCOCC5)c([N+](=O)[O-])c4)c(Oc4cnc5[nH]ccc5c4)c3)CC2)=C(c2ccc(Cl)cc2)C1` [Venetoclax] + Cn1cnc2c(F)c(Nc3ccc(Br)cc3Cl)c(C(=O)NOCCO)cc21 [Selumetinib] (first compound max 1 µM, 7x7, partner max 3 µM), the Bliss excess was 0.009 in the assay with KELLY (Neuroblastoma); -0.0459 in assay [1]; 0.0538 in [2]; 0.055 in assay [3]; -0.0112 in assay [4]; -0.0144 in assay [5]. Besides, the “combination Emax” value in the assay with 42-MG-BA (Glioblastoma) came out at 0.215; with AGS (Gastric Carcinoma), 0.656; in assay [6] it was 0.248; in [7], 0.071; in assay [8] it was 0.0883; in assay [9], 0.268. For the same compound, the “combination Emax” value stood at 0.167 in assay [10]; 0.205 in assay [11]; 0.352 in [12]; 0.187 in [13]; 0.155 in assay [14]; 0.23 in assay [15]. The “combination Emax” value was found to be 0.035 in assay [16] and 0.0846 in [17].
